One assay has as its system bacteria. The experiment in a line: Minimum inhibitory concentration (MIC) assay, bacteria. The class given is cell-based. On the procedure:
(§1) The assays described below were used to measure the minimum inhibitory concentration (MIC) of a compound necessary to inhibit visible growth of the organism tested. These assays are adapted from NCCLS protocols M7-A4 and M27-A (NCCLS vol 17:9 and vol 17:2) as modified by Sandven, S., Clin. Micro. (1999) 37:12, p. 3856–3859. MIC values for Aspergillus species were determined using NCCLS protocol M38-P.
(§2) All compounds were dissolved in 100% DMSO to a stock concentration of 10 mM and used fresh stock compounds in powder form were kept frozen until needed and used freshly. When used for test purposes, compounds were diluted in the appropriate media depending on the organism being tested.
(§3) For yeast and aspergillus species, seven 1:2 serial dilutions of compound in appropriate media buffered with MOPS at pH 7.0 were prepared such that the final starting test compound concentrations were 44.4 μM for yeast and 50 μM aspergillus species. For bacteria, dilutions were made in growth media used for the particular bacteria being tested.
Five well-separated colonies from a 24 h Sabouraud Dextrose plate incubated at 35° C. were picked and resuspended into 2 mL of normal saline. The O.D.530 was read and the culture was adjusted to 0.5 McFarland units with normal saline. A 1:2000 dilution was made with RPMI 1640 media buffered with MOPS at pH 7.0 and 100 μL of this inoculum preparation was added to an equal volume of test compound-containing media. 25 μL of the redox indicator Alamar Blue (Biosource International) was added to each well and the plates were incubated for 48 h at 35° C. Wells having yeast growth changed color from blue to pink.
Inoculums are made in the same manner as yeast except all dilutions are made in normal saline, with a final dilution of 1:200 and an inoculum of 10 μL.

A further assay concerns Aspergillus species. Description: Minimum inhibitory concentration (MIC) assay, filamentous fungi. Type of assay: cell-based. Particulars: antifungal activity, lowest concentration at which 75% inhibition of growth is observed after 48 h. On the procedure: as §1, §2, §3
Inoculums are made by incubating Aspergillus species for 7 days at 35° C. on potato dextrose agar slants. Slants are then covered with 1.0 mL of 0.85% saline, one drop of Tween 20 is added and colonies are teased with a sterile transfer loop to create a suspension which is allowed to sit for 5 min so heavier particles can drop out. The upper suspension is separated and adjusted to an optical density of 0.09 to 0.11. The resulting suspension is diluted 1:50, which yields 2× the final inoculum needed. Micro dilution trays are prepared as with yeast and incubated for 48 h at 35° C. For our purposes the MIC is defined as the lowest compound concentration at which 75% inhibition of growth is observed after 48 h.

Where a name gives a salt, the structure may show the parent alone. Bounds are passed on as bounds.

The term MIC denotes the lowest concentration that inhibits growth of the organism. Read a low MIC as greater potency. With `C/N=C(\N)NCCCNC(=O)c1cc2cc(NC(=O)c3cc4cc(C(=O)NCCNC(=N)NC)ccc4[nH]3)ccc2[nH]1` [Compound 68, 1H-Indole-2,5-dicarboxylic acid 5-{[2-(N′-methyl-guanidino)-ethyl]-amide} 2-({2-[3-(N′-methyl-guanidino)-propylcarbamoyl]-1H-indol-5-yl}-amide)], the MIC in the assay on bacteria is no more than 45.5 µM; against Aspergillus species it was no more than 50 µM.

Consider `C/N=C(\NC)NCCCNC(=O)c1cc2cc(NC(=O)c3cc4cc(C(=O)NCCN/C(=N/C)NC)ccc4[nH]3)ccc2[nH]1` [Compound 69, 1H-Indole-2,5-dicarboxylic acid 2-{[2-(N′,N″-dimethyl-guanidino)-ethyl]-amide} 5-({2-[3-(7N′,N″-dimethyl-guanidino)-propylcarbamoyl]-1H-indol-5-yl}-amide)], for which the MIC is no more than 45.5 µM against bacteria and no more than 50 µM in the assay on Aspergillus species.

With `N=C(N)NCCCNC(=O)c1ccc2[nH]c(C(=O)Nc3ccc4cc(C(=O)NCCCNC(=N)N)[nH]c4c3)cc2c1` [Compound 72, 1H-Indole-2,5-dicarboxylic acid 5-[(3-guanidino-propyl)-amide] 2-{[2-(3-guanidino-propylcarbamoyl)-1H-indol-6-yl-]-amide}], the MIC against bacteria was no more than 45.5 µM; with Aspergillus species, no more than 50 µM.

Regarding `CNC(=N)NCCCNC(=O)c1ccc2[nH]c(C(=O)Nc3ccc4cc(C(=O)NCCCNC(=N)NC)[nH]c4c3)cc2c1` [Compound 73, 1H-Indole-2,5-dicarboxylic acid 5-[(3-(N′-methyl-guanidino)-propyl)-amide] 2-{[2-(3-(N′-methyl-guanidino)-propylcarbamoyl)-1H-indol-6-yl-]-amide}], the MIC with bacteria is no more than 45.5 µM; against Aspergillus species, no more than 50 µM.

As to `C/N=C(\NC)NCCCNC(=O)c1ccc2[nH]c(C(=O)Nc3ccc4cc(C(=O)NCCCN/C(=N/C)NC)[nH]c4c3)cc2c1` [Compound 74, 1H-Indole-2,5-dicarboxylic acid 5-[(3-(N N′,N″-dimethyl-guanidino)-propyl)-amide] 2-{[2-(3-(N′,N″-dimethyl-guanidino)-propylcarbamoyl)-1H-indol-6-yl-]-amide}], the MIC in the assay on bacteria is no more than 45.5 µM; against Aspergillus species, no more than 50 µM.

On to `N=C(N)NCCCNC(=O)c1ccc2[nH]c(C(=O)Nc3ccc4[nH]c(C(=O)NCCCNC(=N)N)cc4c3)cc2c1` [Compound 75, 1H-Indole-2,5-dicarboxylic acid 5-[(3-guanidino-propyl)-amide] 2-{[2-(3-guanidino-propylcarbamoyl)-1H-indol-5-yl-]-amide}], for which the minimum inhibitory concentration (MIC) against bacteria is no more than 45.5 µM; in the assay with Aspergillus species, no more than 50 µM.

In the case of `CNC(=N)NCCCNC(=O)c1ccc2[nH]c(C(=O)Nc3ccc4[nH]c(C(=O)NCCCNC(=N)NC)cc4c3)cc2c1` [Compound 76, 1H-Indole-2,5-dicarboxylic acid S-[(3-(N′-methyl-guanidino)-propyl)-amide] 2-[[2-(3-(N′-methyl-guanidino)-propylcarbamoyl)-1H-indol-5-yl-]-amide)], the minimal inhibitory concentration (MIC) is no more than 45.5 µM in the assay with bacteria and no more than 50 µM with Aspergillus species.

Consider `C/N=C(\NC)NCCCNC(=O)c1ccc2[nH]c(C(=O)Nc3ccc4[nH]c(C(=O)NCCCN/C(=N/C)NC)cc4c3)cc2c1` [Compound 77, 1H-Indole-2,5-dicarboxylic acid 5-[(3-(N′,N″-dimethyl-guanidino)-propyl)-amide] 2-{[2-(3-(N′,N″-dimethyl-guanidino)-propylcarbamoyl)-1H-indol-5-yl-]-amide}], for which the MIC was no more than 45.5 µM against bacteria and no more than 50 µM against Aspergillus species.

In the case of `CC(C)Cn1cc(NC(=O)c2cc3cc(C(=O)NCCNC(=N)N)ccc3[nH]2)cc1C(=O)NCCNC(=N)N` [Compound 80, 1H-Indole-2,5-dicarboxylic acid 5-[(2-guanidino-ethyl)-amide] 2-{[5-(2-guanidino-ethylcarbamoyl)-1-isobutyl-1H-pyrrol-3-yl]-amide)], the MIC in the assay on bacteria was no more than 45.5 µM; against Aspergillus species, no more than 50 µM.

Take `CNC(=N)NCCNC(=O)c1ccc2[nH]c(C(=O)Nc3cc(C(=O)NCCNC(=N)NC)n(CC(C)C)c3)cc2c1` [Compound 81, 1H-Indole-2,5-dicarboxylic acid 2-({1−isobutyl-5-[2-(N′-methyl-guanidino)-ethylcarbamoyl]-1H-pyrrol-3-yl}amide) 5-{[2-(N′-methyl-guanidino)-ethyl]-amide}]: the MIC was no more than 45.5 µM against bacteria and no more than 50 µM with Aspergillus species.

For `N=C(N)NCCNC(=O)c1ccc2[nH]c(C(=O)Nc3ccc4[nH]c(C(=O)NCCNC(=N)N)cc4c3)cc2c1` [Compound 82, 1H-Indole-2,5-dicarboxylic acid 5-[(2-guanidino-ethyl)-amide] 2-{[2-(2-guanidino-ethylcarbamoyl)-1H-indol-5-yl]-amide}], the MIC in the assay with bacteria is no more than 45.5 µM; against Aspergillus species it was no more than 50 µM.

Consider `CC(=N)NCCNC(=O)c1ccc2[nH]c(C(=O)Nc3ccc4[nH]c(C(=O)NCCNC(C)=N)cc4c3)cc2c1` [Compound 89], for which the MIC against bacteria was no more than 45.5 µM; in the assay with Aspergillus species it was no more than 50 µM.

In the case of `CC/N=C(\NC)NCCNC(=O)c1ccc2[nH]c(C(=O)Nc3ccc4[nH]c(C(=O)NCCN/C(=N/CC)NC)cc4c3)cc2c1` [Compound 91, 1H-Indole-2,5-dicarboxylic acid 2-{[2-(N′-ethyl-N′-methylguanidino)ethyl]amide} 5-({2-[2-(N′-ethyl-N″-methylguanidino)ethylcarbamoyl]-1H-indol-5-yl}amide), dihydrochloride], the MIC against bacteria is no more than 45.5 µM; in the assay with Aspergillus species it was no more than 50 µM.

Consider `CN/C(=N\CCO)NCCNC(=O)c1ccc2[nH]c(C(=O)Nc3ccc4[nH]c(C(=O)NCCN/C(=N/CCO)NC)cc4c3)cc2c1` [Compound 92, 1H-Indole-2,5-dicarboxylic acid 2-({2-[N′-(2-hydroxyethyl)-N″-methylguanidino]ethyl}amide) 5-({2-(2-[N′-(2-hydroxyethyl)-N″-methylguanidino]ethylcarbamoyl)-1H-indol-5-yl}amide]dihydrochloride], for which the values for the MIC with bacteria and against Aspergillus species were no more than 45.5 µM and no more than 50 µM, respectively.

With `N=C(N)CCNC(=O)c1cc(NC(=O)c2ccc(C(=O)NCCNC(=N)N)cc2)cn1CC1CC1` [Compound 100, N-[5-(2-Carbamimidoyl-ethylcarbamoyl)-1-cyclopropylmethyl-1H-pyrrol-3-yl]-N′-(2-guanidino-ethyl)-terephthalamide], the MIC in the assay with bacteria is no more than 45.5 µM; against Aspergillus species, no more than 50 µM.

Consider `CNC(=N)NCCNC(=O)c1cc2cc(NC(=O)c3cc4cc(NC(=N)NC)ccc4[nH]3)ccc2[nH]1` [Compound 108, 5-[(5-(N′-methyl-guanidine)-1H-indole-2-carbonyl)-amino]-1H-indole-2-carboxylic acid [2-(N′-methyl-guanidino)ethyl]-amide], for which the minimal inhibitory concentration (MIC) is no more than 45.5 µM against bacteria and no more than 50 µM with Aspergillus species.

Turning to `CNC(=N)NCCNC(=O)c1cc2cc(NC(=O)c3cc4cc(NC(=O)CNC(=N)NC)ccc4[nH]3)ccc2[nH]1` [Compound 110], the MIC in the assay with bacteria is no more than 45.5 µM; against Aspergillus species, no more than 50 µM.

Turning to `CC(C)Cn1cc(NC(=O)c2cc3cc(NC(=O)CCNC(=N)N)ccc3[nH]2)cc1C(=O)NCCC(=N)N` [Compound 115, 5-(3-Guanidino-propionylamino)-1H-indole-2-carboxylic acid [5-(2-carbamimidoyl-ethylcarbamoyl)-1-isobutyl-1H-pyrrol-3-yl]-amide], the MIC with bacteria was no more than 45.5 µM; with Aspergillus species it was no more than 50 µM.

As for `N=C(N)NCCNC(=O)c1ccc2[nH]c(C(=O)Nc3ccc4cc(C(=O)NCNC(=N)N)[nH]c4c3)cc2c1` [Compound 171, 1H-Indole-2,5-dicarboxylic acid 5-[(2-guanidino-ethyl)-amide] 2-{[2-(guanidinomethyl-carbamoyl)-1H-indol-6-yl]-amide}], the figures for the MIC with bacteria and against Aspergillus species were no more than 45.5 µM and no more than 50 µM, respectively.

As for `N=C(N)NCCNC(=O)c1ccc2[nH]c(C(=O)Nc3ccc4sc(C(=O)NCCNC(=N)N)cc4c3)cc2c1` [Compound 174, 1H-Indole-2,5-dicarboxylic acid 5-[(2-guanidino-ethyl)-amide] 2-{[2-(2-guanidino-ethylcarbamoyl)-benzo[b]thiophen-5-yl]-amide}], the figures for the MIC against bacteria and with Aspergillus species were no more than 45.5 µM and no more than 50 µM, respectively.

With `N=C(N)NCCNC(=O)c1ccc2[nH]c(C(=O)Nc3ccc4cc(C(=O)NCCNC(=N)c5ccccn5)[nH]c4c3)cc2c1` [Compound 180, 1H-Indole-2,5-dicarboxylic acid 5-[(2-guanidinoethyl)amide] 2-[(2-{2-[(pyridine-2-carboximidoyl)amino]ethylcarbamoyl}-1H-indol-6-yl)amide]], the values for the MIC against bacteria and against Aspergillus species were no more than 45.5 µM and no more than 50 µM, respectively.

The values above are taken from US7141680B2, “Aromatic compounds possessing antifungal or antibacterial activity” (Genelabs Technologies, Inc., priority 2002, dated 2006).
